Data from ChEMBL document CHEMBL2434941, “Synthesis of conformationally constrained γ-D-glutamyl-meso-diaminopimelic acid derivatives as ligands of nucleotide-binding oligomerization domain protein 1 (Nod1)” (Eur J Med Chem, 2013).
Active and inactive are the calls of the source. The calls are words filed in the database; no cut-off is given here.

Columns and labels:
PBMC [1] = assay: Immunomodulatory activity in human PBMC assessed as increase in LPS-induced IL-8 production at 10 uM after 24 hrs by flow cytometric analysis; format: functional, cell-based
PBMC [2] = assay: Immunomodulatory activity in human PBMC assessed as increase in LPS-induced TNF-alpha production at 10 uM after 24 hrs by flow cytometric analysis; format: functional, cell-based
PBMC [3] = assay: Immunomodulatory activity in human PBMC assessed as increase in LPS-induced IL-10 production at 10 uM after 24 hrs by flow cytometric analysis; format: functional, cell-based
PBMC [4] = assay: Immunomodulatory activity in human PBMC assessed as increase in LPS-induced IL-1beta production at 10 uM after 24 hrs by flow cytometric analysis; format: functional, cell-based
PBMC [5] = assay: Immunomodulatory activity in human PBMC assessed as increase in LPS-induced IL-6 production at 10 uM after 24 hrs by flow cytometric analysis; format: functional, cell-based
PBMC [6] = assay: Immunomodulatory activity in human PBMC assessed as increase in IL-10 production at 10 uM after 24 hrs by flow cytometric analysis; format: functional, cell-based
PBMC [7] = assay: Immunomodulatory activity in human PBMC assessed as increase in TNF-alpha production at 10 uM after 24 hrs by flow cytometric analysis; format: functional, cell-based
PBMC [8] = assay: Immunomodulatory activity in human PBMC assessed as increase in IL-12p70 production at 10 uM after 24 hrs by flow cytometric analysis; format: functional, cell-based
PBMC [9] = assay: Immunomodulatory activity in human PBMC assessed as increase in IL-1beta production at 10 uM after 24 hrs by flow cytometric analysis; format: functional, cell-based
PBMC [10] = assay: Immunomodulatory activity in human PBMC assessed as increase in IL-8 production at 10 uM after 24 hrs by flow cytometric analysis; format: functional, cell-based
PBMC [11] = assay: Immunomodulatory activity in human PBMC assessed as increase in IL-6 production at 10 uM after 24 hrs by flow cytometric analysis; format: functional, cell-based
PBMC [12] = assay: Immunomodulatory activity in human PBMC assessed as increase in LPS-induced IL-12p70 production at 10 uM after 24 hrs by flow cytometric analysis; format: functional, cell-based
[13] = target: T1, Nucleotide-binding oligomerization domain-containing protein 1 (Homo sapiens) (UniProt Q9Y239); assay: Agonist activity at human Nod1 expressed in human Ramos cells assessed as reduction of NF-kappaB transcriptional activity at 10 uM after 24 hrs by SEAP reporter gene assay in presence of nod1 antagonist noditinib-1; format: cell-based
T1 sequence (whole entry): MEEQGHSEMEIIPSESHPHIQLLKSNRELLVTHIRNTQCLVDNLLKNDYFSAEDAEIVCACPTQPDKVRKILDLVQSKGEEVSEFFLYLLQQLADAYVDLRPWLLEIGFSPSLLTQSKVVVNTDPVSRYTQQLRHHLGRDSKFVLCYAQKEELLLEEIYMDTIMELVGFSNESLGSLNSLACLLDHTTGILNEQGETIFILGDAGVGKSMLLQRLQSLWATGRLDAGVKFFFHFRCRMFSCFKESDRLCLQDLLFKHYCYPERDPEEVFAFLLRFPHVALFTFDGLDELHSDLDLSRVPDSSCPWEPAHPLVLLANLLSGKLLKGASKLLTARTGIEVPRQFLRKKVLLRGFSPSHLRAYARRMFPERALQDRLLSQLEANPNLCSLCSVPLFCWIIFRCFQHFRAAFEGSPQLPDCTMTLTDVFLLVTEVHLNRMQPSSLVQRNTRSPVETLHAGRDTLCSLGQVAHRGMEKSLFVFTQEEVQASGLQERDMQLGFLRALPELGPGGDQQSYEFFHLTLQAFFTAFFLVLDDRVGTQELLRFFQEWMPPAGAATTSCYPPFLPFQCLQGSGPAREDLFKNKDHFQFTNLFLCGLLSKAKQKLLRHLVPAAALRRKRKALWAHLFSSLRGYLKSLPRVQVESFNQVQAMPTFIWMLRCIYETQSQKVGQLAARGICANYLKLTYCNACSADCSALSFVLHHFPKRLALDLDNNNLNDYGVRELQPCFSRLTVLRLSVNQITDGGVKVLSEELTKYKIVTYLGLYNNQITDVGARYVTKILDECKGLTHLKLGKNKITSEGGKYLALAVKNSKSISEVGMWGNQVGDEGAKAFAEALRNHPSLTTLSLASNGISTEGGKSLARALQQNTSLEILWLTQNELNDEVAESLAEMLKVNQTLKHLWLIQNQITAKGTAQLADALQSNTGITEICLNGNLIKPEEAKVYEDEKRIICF

[14] = target: T1, Nucleotide-binding oligomerization domain-containing protein 1 (Homo sapiens); assay: Agonist activity at human Nod1 expressed in human Ramos-Blue cells assessed as increase in NF-kappaB transcriptional activity at 10 uM after 24 hrs by SEAP reporter gene assay; format: cell-based

SMILES | Activity [13] | Activity [14] | Activity (PBMC [1]) | Activity (PBMC [2]) | Activity (PBMC [3]) | Activity (PBMC [4]) | Activity (PBMC [5]) | Activity (PBMC [6]) | Activity (PBMC [7]) | Activity (PBMC [8]) | Activity (PBMC [9]) | Activity (PBMC [10]) | Activity (PBMC [11]) | Activity (PBMC [12])
CCCCCCCCCCCC(=O)N[C@H](CCC(=O)N[C@@H](/C=C/C[C@@H](N)C(=O)O)C(=O)O)C(=O)O | Active | Active | inactive | inactive | Active | inactive | Active | Active | Active | inactive | Active | Active | Active | inactive
CCCCCCCCCCCC(=O)N[C@H](CCC(=O)N[C@@H](CCC[C@@H](N)C(=O)O)C(=O)O)C(=O)O | Active | Active | inactive | Active | Active | inactive | Active | Active | Active | inactive | Active | Active | Active | inactive

Further lines, with some results ahead:

Activity [13] | Activity [14] | SMILES | Activity (PBMC [1]) | Activity (PBMC [2]) | Activity (PBMC [3]) | Activity (PBMC [4]) | Activity (PBMC [5]) | Activity (PBMC [6]) | Activity (PBMC [7]) | Activity (PBMC [8]) | Activity (PBMC [9]) | Activity (PBMC [10]) | Activity (PBMC [11]) | Activity (PBMC [12])
Active | Active | CCCCCCCCCCCC(=O)N[C@H](CCC(=O)N[C@@H](C/C=C/[C@@H](N)C(=O)O)C(=O)O)C(=O)O | inactive | Active | Active | inactive | Active | Active | Active | inactive | Active | Active | Active | inactive
Active | Active | CCCCCCCCCCCCN(CCCCCCCCCCCC)[C@H](CCC(=O)N[C@@H](C/C=C/[C@@H](N)C(=O)O)C(=O)O)C(=O)O | inactive | inactive | inactive | inactive | Active | Active | Active | inactive | Active | Active | Active | inactive
Active | Active | CCCCCCCCCCCCN(CCCCCCCCCCCC)[C@H](CCC(=O)N[C@@H](/C=C/C[C@@H](N)C(=O)O)C(=O)O)C(=O)O | inactive | inactive | Active | inactive | Active | Active | Active | inactive | Active | Active | Active | inactive
